{
  "source": "patent US8518882B2",
  "about": "“Methods and compositions for ameliorating or inhibiting decline in memory or intelligence or improving same” (priority 1998, dated 2013)",
  "key": {"gerbils [1]": {"system": "gerbils", "assay": "Working memory and reference memory assay in gerbils", "type": "in vivo", "settings": "0.1% UMP diet for four weeks", "excerpt": "Groups of ten gerbils fed control or 0.1% UMP diet for four weeks and trained to successfully find all of the food pellets as described above were then given a modified test in which only two arms of the maze (but always the same two) contained food pellet rewards. In this test, a working memory error is one in which a gerbil revisits an arm from which it has already taken the pellet that day."}, "[2]": {"assay": "Body weight of EC and IC rats on UMP diet", "type": "in vivo, Sprague Dawley rats", "settings": "0.1% UMP-2Na+ diet vs control groups", "description": "Animals were maintained under standard environmental conditions (room temperature, 20-25° C.; relative humidity, 55-60%; light/dark schedule, 12/12). Seven pregnant Sprague Dawley rats (Charles River Laboratories) were obtained 1 wk prior to giving birth. […] At this time, thirty-two rats were matched according to body weight, and assigned to either IC or EC conditions.\nRats were housed in the same rack in plastic cages (52×32×20 cm high) with wire lids. Bedding and water were regularly changed, and animals were weighed each week, at which time general health assessments were made. Animals had ad libitim access to chow and water. EC rats were housed in groups of 2-3 animals Plastic toys (blocks, balls, PVC tubing, etc) placed in the EC cages were rotated between groups weekly; new toys were introduced monthly EC rats were taken to a “playroom” (12×6 ft; containing cabinets, desks, chairs, boxes, and toys) every other day for 45 min. The IC rats were housed individually, without toys, and handled three times per week to acclimatize the animals to experimenter handling and in order to alleviate fear and anxiety in subsequent behavioral training procedures. To avoid the typical weight gain caused by impoverished conditions (relative to enriched rats), IC rats were allowed to exercise three times per week for 15 min in an empty 4×6 ft room with only the experimenter present. […]"}, "Aging rats": {"system": "Aging rats", "assay": "Morris water maze in aging rats on UMP diet", "type": "in vivo", "settings": "2.5% diet for six weeks", "excerpt": "Aging rats (18 months, 500 g) were fed a control diet or a diet containing 2.5% UMP diets for six weeks. They were then shown a hidden platform in a six-foot diameter pool of water, placed somewhere in each of the four quadrants of the pool in turn, and were allowed 90 seconds in each trial to attempt to relocate the platform by swimming, and the swimming time “mean escape latency” recorded. The set of four trials was repeated on each of four consecutive days. The platform was in the same place each day. This test, known as the Morris water maze, is an indicator of spatial memory."}, "[3]": {"system": "CDP-choline levels in the brain", "assay": "Brain CDP-choline levels after oral UMP in gerbils", "type": "in vivo", "settings": "UMP 1 mmole/kg by gavage, for 30 min, r=0.98, p<0.02", "description": "Data was pooled from three experiments, with group sizes ranging from 5 to 16 animals. Male gerbils (60-80 g) were given UMP (1 mmole/kg body weight) by gavage and sacrificed at the indicated times. After brain homogenization, protein precipitation, and lyophilization as described for Example 3, samples were analyzed by HPLC-UV.\nBrain tissue or cells was dissolved in methanol/chloroform (1:2 vol/vol), centrifuged, and the aqueous phase was dried under vacuum, resuspended in 100-200 μL water and separated by HPLC on an ion-exchange column (Alltech Hypersil APS-2, 5 μM, 250×4.6 mm). CDP-choline was eluted with a linear gradient of NaH2PO4 buffers A (1.75 mM NaH2PO4, pH 2.9) and B (500 mM, pH 4.5), which allowed resolution of CDP-choline from closely co-eluting substances such as UMP over 40 min. The retention time for CDP-choline was 9.5 min. Individual nucleotide peaks were detected by UV absorption at […], and were identified by comparison with the positions of authentic standards, as well as by the addition of nucleotide standards to selected samples."}, "gerbils [4]": {"system": "gerbils", "assay": "Radial arm maze food pellet learning assay in gerbils", "type": "in vivo", "settings": "gerbils, 0.1, 0.5 or 2.5% UMP chow for three weeks", "description": "Male young adult gerbils fed control or UMP-containing chow (0, 0.1, 0.5 or 2.5%) ad lib for three weeks were tested in a radial arm maze, consisting of a central chamber with four branches primed with a small food pellet at the end of each. Before testing, animals were fasted overnight; each animal was then placed in the central chamber and allowed up to 180 seconds to find all of the pellets. A shorter time required to find the pellets is indicative of improved learning and spatial memory."}, "[5]": {"system": "dopamine (DA) release in striatal dialysate", "assay": "In vivo microdialysis of striatal dopamine and metabolites in aged rats on UMP diet", "parameters": "species or system Fischer 344 rats", "settings": "control vs. UMP-1 week vs. UMP-6 weeks, 2.5% UMP diet"}, "[6]": {"assay": "Plasma uridine levels after oral UMP in humans", "type": "in vivo", "settings": "500, 1000 or 2000 mg UMP orally; baseline and 1, 2, 4, 8 hr", "description": "1-milliliter (mL) samples of heparinized plasma were spiked with 1 μg fluoro-uridine for use as an internal standard, then deproteinized by adding methanol (5 mL).\nAll steps were performed at 4° C. Boronate affinity columns (Affigel-601, Bio-Rad) were primed with two 5-mL ammonium acetate washes, samples were applied, and columns were washed again with ammonium acetate, after which the nucleosides were eluted with 0.1 N formic acid (7 mL). Eluates were lyophilized, then reconstituted in 100 μL water for HPLC analysis.\nHPLC analysis was performed using a Beckman System Gold apparatus (Beckman Instruments) equipped with a Rainin Dynamax Microsorb C18 column (3 μm packing; 4.6×100 mm) at room temperature. The standard HPLC method is described in Lopez-Coviella et al, (J. Neurochem 65: 889-894, 1995). For modified HPLC, an isocratic elution buffer was used containing 0.004 N potassium phosphate buffer (pH 5.8) and 0.1% methanol instead of formic acid, flowing at 1 mL/min and heated to 35°.\nEight healthy subjects (5 male, 3 female, 27-67 years old) were instructed to fast overnight and given sequentially increasing doses (500, 1000, and 2000 mg) of disodium UMP (Numico, Wageningen, NL) at 7-8 AM on each of three days, separated by at least a three-day washout period. All subjects were given lunch. Blood samples were drawn over an eight-hour period into heparinized tubes. […]"}, "EC and IC rats": {"system": "EC and IC rats", "assay": "Visible platform water maze task in EC and IC rats", "type": "in vivo, Sprague Dawley rats", "settings": "UMP-supplemented diet", "quoted_text": "On each trial the animal was placed into the tank facing the wall at one of four designated start points (N, S, E, and W) and allowed to escape onto the visibly cued platform. A different starting point was used on each trial such that each starting point was used each day. In addition, the visible escape platform was placed in a different quadrant on each trial such that each of the four quadrants contained the escape platform once each day. […] After mounting the platform, rats remained on the platform for 20 sec. Following each trial, animals were removed from the maze and placed in a holding cage for a 30-sec ITI."}},
  "data": [
    {"smiles": "O=c1ccn([C@@H]2O[C@H](COP(=O)([O-])[O-])[C@@H](O)[C@H]2O)c(=O)[nH]1.[Na+].[Na+]", "note": "[UMP, uridine-5′-monophosphate disodium]", "values": [
      {"measurement": "Reference memory errors", "setting": "gerbils [1]", "value": "reduced numbers"},
      {"measurement": "Working memory errors", "setting": "gerbils [1]", "value": "reduced numbers"},
      {"measurement": "Mean body weights", "setting": "[2]", "value": "No significant differences"},
      {"measurement": "Time required to reach the platform (mean escape latency)", "setting": "Aging rats", "value": "statistically significant reduction in the time required to reach the location of the platform"},
      {"measurement": "Brain CDP-choline levels", "setting": "[3]", "value": "rose significantly in a linear fashion"},
      {"measurement": "Time required to find the pellets", "setting": "gerbils [4]", "value": "reduced the time required for gerbils to find the pellet in a dose-dependent manner"},
      {"measurement": "Basal DA levels in dialysate", "setting": "[5]", "value": "did not affect"},
      {"measurement": "Basal DOPAC levels in dialysate", "setting": "[5]", "value": "no effects"},
      {"measurement": "Basal HVA levels in dialysate", "setting": "[5]", "value": "no effects"},
      {"measurement": "Plasma uridine levels", "setting": "[6]", "value": "increased in response to oral UMP in a dose-dependent fashion"},
      {"measurement": "Striatal-based (stimulus-response) memory, visible platform task", "setting": "EC and IC rats", "value": "little or no effect"}
    ]}
  ]
}
